# In patent publication US20030119862A1, “Pharmaceutical combination” (priority 2001, published 2003):
# Where two headings read alike, the source gives them in different places.
# Tested on: isolated human neutrophils
# Assay: Inhibition of fMLP-induced elastase release from isolated human neutrophils
# Format: cell-based
# Details: read-out: Inhibition of elastase release (IC50)
# Experimental: Test data—Inhibition of Elastase Release from Isolated Human Neutrophils
# The dextran/blood was mixed gently by inversion and left to stand at room temperature for 45 minutes to allow erythrocyte sedimentation. Aliquots of 16 ml from the leukocyte-rich supernatant were overlaid on 10 ml Ficoll-Hypaque cushions in 50 ml polypropylene centrifuge tubes and the tubes centrifuged at 400 g for 35 mins at 21° C. The plasma, mononuclear cell layer and Ficoll were removed leaving the granulocyte-rich pellet. The pellets were initially re-suspended in 10 ml ice-cold distilled water for 45 seconds to lyse contaminating red blood cells, followed by the addition of 10 ml of ice-cold double concentrated phosphate buffered saline (PBS) solution to each tube to restore osmolarity. The suspensions were re-centrifuged at 200 g for 10 min at 4° C. to generate neutrophil pellets. The supernatants were removed and the pellets gently resuspended in a total volume of 10 ml ice-cold HBSS using a Pasteur pipette. A differential white cell count was performed on the resulting neutrophil suspension using a Beckman Coulter Ac. T5 haematology analyser and the cells stored on ice until assay. Immediately prior to assay, aliquots of the neutrophil suspension were removed and diluted to a count of 4×10^6 neutrophils/ml ice-cold HBSS containing 2U/ml adenosine deaminase.
# Inhibition of fMLP induced elastase release was performed using a 160 μl assay volume in 96-well polystyrene microtiter plates. Elastase release was assayed by measuring the rate of cleavage of the synthetic substrate MeOSuc-Ala-Ala-Pro-Val-pNA. […] Assay plates were incubated at 37° C. for 10 minutes before addition of 8 μl of 2 μM fMLP (in HBSS) and measurement of rate of substrate cleavage was measured at λ=405 nm for 3 minutes at 37° C. Basal elastase, release was determined by the addition of 8 μl HBSS in place of fMLP. […] In the case of the combination experiments, 1000 nM of Ariflo (trade mark) (A) (also known as cilomilast) or 9-cyclopentyl-5,6-dihydro-7-ethyl-3-(2-thienyl)-9H-pyrazolo[3,4-c]-1,2,4-triazolo[4,3-α]pyridine and 9-cyclopentyl-5,6-dihydro-7-ethyl-3-(tert-butyl)-9H-pyrazolo[3,4-c]-1,2,4-triazolo[4,3-c]pyridine (C) were added to the assay and a concentration response curve was then generated for formoterol (F) or salmeterol (S).
# [1] = Neutrophil, single agent, fMLP-induced elastase release, isolated human neutrophils
IC50 [1],SMILES,other results
> 1000 nM,"COc1ccc([C@]2(C#N)CC[C@@H](C(=O)O)CC2)cc1OC1CCCC1 [A, cilomilast]",
,"CCc1nn(C2CCCC2)c2c1CCn1c(-c3cccs3)nnc1-2 [C, 9-cyclopentyl-5,6-dihydro-7-ethyl-3-(2-thienyl)-9H-pyrazolo[3,4-c]-1,2,4-triazolo[4,3-α]pyridine and 9-cyclopentyl-5,6-dihydro-7-ethyl-3-(tert-butyl)-9H-pyrazolo[3,4-c]-1,2,4-triazolo[4,3-c]pyridine]","IC50 (single agent, fMLP-induced elastase release, isolated human neutrophils): > 1000 nM"
,"COc1ccc(CC(C)NCC(O)c2ccc(O)c(NC=O)c2)cc1 (stereo not shown) [F, N-[2-hydroxy-5-(1-hydroxy-2-((2-(4-methoxyphenyl)-1-methylethyl)amino)ethyl)phenyl]formamide]","IC50 (Homo sapiens, Neutrophil): > 1000 nM"
> 1000 nM,"OCc1cc(C(O)CNCCCCCCOCCCCc2ccccc2)ccc1O (stereo not shown) [S, salmeterol]",
